Source: PubChem BioAssay (NCI)
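Tested at 5 concentrations; 48 h exposure; 96-well plates; endpoints linearly interpolated, else capped at highest concentration. At the GI50, growth is halved. TGI: concentration producing complete growth inhibition.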

Legend:
Test in all cases: NCI anticancer screen, dose series, 48 h
[1] = tested on: 786-0 renal
[2] = tested on: A498 renal
[3] = tested on: A549 NSCLC
[4] = tested on: ACHN renal
[5] = tested on: BT-549 breast
[6] = tested on: CAKI-1 renal
[7] = tested on: CCRF-CEM leukemia
[8] = tested on: DU-145 prostate
[9] = tested on: EKVX NSCLC
[10] = tested on: HCC-2998 colon
[11] = tested on: HCT-116 colon
[12] = tested on: HCT-15 colon
[13] = tested on: HL-60(TB) leukemia
[14] = tested on: HOP-62 NSCLC
[15] = tested on: HOP-92 NSCLC
[16] = tested on: HS 578T breast
[17] = tested on: IGROV1 ovarian
[18] = tested on: KM12 colon
[19] = tested on: LOX IMVI melanoma
[20] = tested on: M14 melanoma
[21] = tested on: MALME-3M melanoma
[22] = tested on: MCF7 breast
[23] = tested on: MDA-MB-231 breast
[24] = tested on: MDA-MB-435
[25] = tested on: MOLT-4 leukemia
[26] = tested on: NCI-H226 lung
[27] = tested on: NCI-H23 lung
[28] = tested on: NCI-H460 lung
[29] = tested on: NCI-H522 lung
[30] = tested on: NCI/ADR-RES ovarian
[31] = tested on: OVCAR-3 ovarian
[32] = tested on: OVCAR-4 ovarian
[33] = tested on: OVCAR-5 ovarian
[34] = tested on: OVCAR-8 ovarian
[35] = tested on: PC-3 prostate
[36] = tested on: RPMI-8226 leukemia
[37] = tested on: RXF 393 renal
[38] = tested on: SF-268 CNS
[39] = tested on: SF-295 CNS
[40] = tested on: SF-539 CNS
[41] = tested on: SK-MEL-2 melanoma
[42] = tested on: SK-MEL-5 melanoma
[43] = tested on: SN12C renal
[44] = tested on: SR leukemia
[45] = tested on: SW-620 colon
[46] = tested on: TK-10 renal
[47] = tested on: U251 CNS
[48] = tested on: UACC-257 melanoma
[49] = tested on: UACC-62 melanoma
[50] = tested on: UO-31 renal

For `COc1ccc(NC(=O)C2CCC(CNS(=O)(=O)c3ccccc3)CC2)cc1OC` (stereo not given), the GI50 [1] was over 100 µM, the TGI [1] was over 100 µM and the GI50 [2] was over 100 µM. For the same molecule, the TGI [2] was over 100 µM, the GI50 [3] was over 100 µM and the TGI [3] was over 100 µM. For the same molecule, the GI50 [4] was over 100 µM, the TGI [4] was over 100 µM and the GI50 [5] was over 100 µM. It also gave a TGI [5] of over 100 µM, a GI50 [6] of over 100 µM and a TGI [6] of over 100 µM. It also gave a GI50 [7] of over 100 µM, a TGI [7] of over 100 µM and a GI50 [8] of over 100 µM. The TGI [8] was over 100 µM, the GI50 [9] was over 100 µM and the TGI [9] was over 100 µM. The GI50 [10] was over 100 µM, the TGI [10] was over 100 µM and the GI50 [11] was over 100 µM. The TGI [11] was over 100 µM, the GI50 [12] was over 100 µM and the TGI [12] was over 100 µM. For the same molecule, the GI50 [13] was over 100 µM, the TGI [13] was over 100 µM and the GI50 [14] was 26.8 µM. For the same molecule, the TGI [14] was 86.8 µM, the GI50 [15] was over 100 µM and the TGI [15] was over 100 µM. It also gave a GI50 [16] of 76.5 µM, a TGI [16] of over 100 µM and a GI50 [17] of over 100 µM. It also gave a TGI [17] of over 100 µM, a GI50 [18] of over 100 µM and a TGI [18] of over 100 µM. The GI50 [19] was over 100 µM, the TGI [19] was over 100 µM and the GI50 [20] was over 100 µM. For the same molecule, the TGI [20] was over 100 µM, the GI50 [21] was 40.3 µM and the TGI [21] was over 100 µM. The GI50 [22] was over 100 µM, the TGI [22] was over 100 µM and the GI50 [23] was 35.3 µM. The TGI [23] was over 100 µM, the GI50 [24] was over 100 µM and the TGI [24] was over 100 µM. The GI50 [25] was over 100 µM, the TGI [25] was over 100 µM and the GI50 [26] was over 100 µM. The TGI [26] was over 100 µM, the GI50 [27] was over 100 µM and the TGI [27] was over 100 µM. For the same molecule, the GI50 [28] was over 100 µM, the TGI [28] was over 100 µM and the GI50 [29] was 60.9 µM. For the same molecule, the TGI [29] was over 100 µM, the GI50 [30] was over 100 µM and the TGI [30] was over 100 µM. For the same molecule, the GI50 [31] was over 100 µM, the TGI [31] was over 100 µM and the GI50 [32] was over 100 µM. For the same molecule, the TGI [32] was over 100 µM, the GI50 [33] was over 100 µM and the TGI [33] was over 100 µM. It also gave a GI50 [34] of over 100 µM, a TGI [34] of over 100 µM and a GI50 [35] of over 100 µM. The TGI [35] was over 100 µM, the GI50 [36] was over 100 µM and the TGI [36] was over 100 µM. The GI50 [37] was over 100 µM, the TGI [37] was over 100 µM and the GI50 [38] was 74.2 µM. The TGI [38] was over 100 µM, the GI50 [39] was over 100 µM and the TGI [39] was over 100 µM. For the same molecule, the GI50 [40] was over 100 µM, the TGI [40] was over 100 µM and the GI50 [41] was over 100 µM. It also gave a TGI [41] of over 100 µM, a GI50 [42] of over 100 µM and a TGI [42] of over 100 µM. The GI50 [43] was 2.69 µM, the TGI [43] was 69.5 µM and the GI50 [44] was 0.542 µM. For the same molecule, the TGI [44] was over 100 µM, the GI50 [45] was over 100 µM and the TGI [45] was over 100 µM. For the same molecule, the GI50 [46] was over 100 µM, the TGI [46] was over 100 µM and the GI50 [47] was 54 µM. The TGI [47] was over 100 µM, the GI50 [48] was over 100 µM and the TGI [48] was over 100 µM. For the same molecule, the GI50 [49] was 54.6 µM, the TGI [49] was over 100 µM and the GI50 [50] was over 100 µM. The TGI [50] was over 100 µM.
